Reference: BindingDB's records for doi:10.1021/jm00150a026 (1985)
pKi: −log10 of the molar value.

target: Dihydrofolate reductase (Escherichia coli, UniProt P0ABQ4); test: Inhibition of Escherichia coli dihydrofolate reductase.
Sequence (P0ABQ4 whole entry, looked up): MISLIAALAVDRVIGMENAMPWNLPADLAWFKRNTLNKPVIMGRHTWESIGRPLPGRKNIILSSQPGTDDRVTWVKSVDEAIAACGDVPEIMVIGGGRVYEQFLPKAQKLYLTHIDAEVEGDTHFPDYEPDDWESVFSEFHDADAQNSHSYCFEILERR

How did the pKi turn out when `CC(C)(C)c1cccc(OCc2cccc(N3C(N)=NC(N)=NC3(C)C)c2)c1` was run?
The pKi was 6.06.

How did the pKi turn out when `CCCCCCCCCCCCOc1cccc(N2C(N)=NC(N)=NC2(C)C)c1` was run?
The pKi was 5.88.

With `CC1(C)N=C(N)N=C(N)N1c1cccc(OCc2ccc(Cl)c(Cl)c2)c1` as the compound, how does the pKi read?
Its pKi is 6.15.

How did the pKi turn out when `CC1(C)N=C(N)N=C(N)N1c1cccc(COc2cccc(NC(N)=S)c2)c1` was run?
The pKi was 6.17.

With `CC1(C)N=C(N)N=C(N)N1c1cccc(COc2cccc(Cl)c2)c1` [1-[3-(3-Chloro-phenoxymethyl)-phenyl]-6,6-dimethyl-1,6-dihydro-[1,3,5]triazine-2,4-diamine] as the compound, how does the pKi read?
Its pKi is 6.01.

`CCc1cccc(OCc2cccc(N3C(N)=NC(N)=NC3(C)C)c2)c1` [1-[3-(3-Ethyl-phenoxymethyl)-phenyl]-6,6-dimethyl-1,6-dihydro-[1,3,5]triazine-2,4-diamine] was tested. Which pKi did it give?
Its pKi is 5.95.

With `COc1cccc(OCc2cccc(N3C(N)=NC(N)=NC3(C)C)c2)c1` [1-[3-(3-Methoxy-phenoxymethyl)-phenyl]-6,6-dimethyl-1,6-dihydro-[1,3,5]triazine-2,4-diamine] as the compound, how does the pKi read?
Its pKi is 6.02.

With `CC1(C)N=C(N)N=C(N)N1c1cccc(COc2cccc(C#N)c2)c1` [3-[3-(4,6-Diamino-2,2-dimethyl-2H-[1,3,5]triazin-1-yl)-benzyloxy]-benzonitrile] as the compound, how does the pKi read?
The pKi was 6.05.

How did the pKi turn out when `Cc1cccc(OCc2cccc(N3C(N)=NC(N)=NC3(C)C)c2)c1` [6,6-Dimethyl-1-(3-m-tolyloxymethyl-phenyl)-1,6-dihydro-[1,3,5]triazine-2,4-diamine] was run?
The pKi was 6.27.

With `CCCCCCCCCCCCCCOc1cccc(N2C(N)=NC(N)=NC2(C)C)c1` [6,6-Dimethyl-1-(3-tetradecyloxy-phenyl)-1,6-dihydro-[1,3,5]triazine-2,4-diamine] as the compound, how does the pKi read?
The pKi was 5.85.

`CCCCCCCCCCCOc1cccc(N2C(N)=NC(N)=NC2(C)C)c1` [6,6-Dimethyl-1-(3-undecyloxy-phenyl)-1,6-dihydro-[1,3,5]triazine-2,4-diamine] was tested. Which pKi did it give?
The pKi was 6.19.

How did the pKi turn out when `CC1(C)N=C(N)N=C(N)N1c1cccc(COc2cccc(CO)c2)c1` [{3-[3-(4,6-Diamino-2,2-dimethyl-2H-[1,3,5]triazin-1-yl)-benzyloxy]-phenyl}-methanol] was run?
Its pKi is 6.19.

`CC1(C)N=C(N)N=C(N)N1c1cccc(COc2cccc(NC(N)=O)c2)c1` [{3-[3-(4,6-Diamino-2,2-dimethyl-2H-[1,3,5]triazin-1-yl)-benzyloxy]-phenyl}-urea] was tested. Which pKi did it give?
Its pKi is 5.91.
